Assay results taken from US10253041B2, “7-phenylethylamino-4H-pyrimido[4,5-d][1,3]oxazin-2-one compounds and their use as mutant IDH1 inhibitors” (Eli Lilly and Company, priority 2015, dated 2019).
Read-outs that look alike come from different tables or passages of the source.

Columns and labels:
[1] = tested on: IDH1/R132H in U87MG glioma cells; assay: U87MG/IDH1R132H cell assay (intracellular 2HG); type: cell-based; conditions: 1 hour + 18 hours incubation, read-out: U87MG (IDH1/R132H 2-hydroxyglutarate IC50)
Procedure: To test the cellular inhibition of IDH1 mutant R132C, the fibrosarcoma cell line HT1080 (purchased from ATCC) is used. For testing cell-based inhibition of the R132H mutation, the U87MG glioma cell line (ATCC) was stably transfected with a DNA construct expressing the R132H mutant enzyme.
Cells are plated in poly-D-lys coated 96 well plates (12,000 cells/well) 18-24 hours previous to treatment with compounds. Four hours prior to compound treatment, cells are glutamine-starved by removing normal media and replacing with glutamine-free media. Following starvation, cells are then treated with different concentrations of test compounds (20 μM to 1 nM) dissolved in glutamine free media containing DMSO at a final concentration of 0.2%. The initial compound incubation is for 1 hour at 37° C./5% CO2. After 1 hour, glutamine is added to a final 2 mM concentration and the treated cells are then incubated for a further 18 hours at 37° C./5% CO2. Intracellular 2HG is analyzed in cell lysates obtained after media removal and treatment with lysis buffer (25 mM Tris-HCl pH 7.5, 150 mM NaCl, 1 mM EDTA, 1 mM EGTA/1% Triton-X 100). Cell lysates are conserved at −80° C. until processing. For analyte extraction, an aliquot of thawed lysate is transferred to a deep 96-well plate and treated with cold MeOH containing d5-3HG as an internal standard followed by chloroform and H2O (1:4:3:2). The upper phase is collected after separation and injected in HPLC to separate 2HG (and internal standard) using hydrophilic interaction (HILIC) chromatography coupled to MS/MS detection in a 6460 triple quadrupole mass spectrometer. Percent inhibition for each individual sample is obtained after normalizing calculated 2HG concentration to maximum and minimum references obtained in the presence and in the absence of glutamine during cell treatment with compounds. IC50 values are obtained from individual % inhibition using a sigmoidal dose-response 4-parameter equation. These calculations are carried out automatically using Activity Base (IDBS) or Screener (Genedata) data analysis programs.

IDH2/R140Q = molecular target: T1, IDH2/R140Q (Homo sapiens, UniProt P48735, R140Q); assay: Biochemical assay for IDH2 R140Q mutant enzyme (2HG by RapidFire MS); conditions: mean ± standard deviation of the mean; 90 minutes reaction
T1 construct: His-tag (N); made in house; host or cells: E. coli
T1 sequence (P48735 40-452 R140Q): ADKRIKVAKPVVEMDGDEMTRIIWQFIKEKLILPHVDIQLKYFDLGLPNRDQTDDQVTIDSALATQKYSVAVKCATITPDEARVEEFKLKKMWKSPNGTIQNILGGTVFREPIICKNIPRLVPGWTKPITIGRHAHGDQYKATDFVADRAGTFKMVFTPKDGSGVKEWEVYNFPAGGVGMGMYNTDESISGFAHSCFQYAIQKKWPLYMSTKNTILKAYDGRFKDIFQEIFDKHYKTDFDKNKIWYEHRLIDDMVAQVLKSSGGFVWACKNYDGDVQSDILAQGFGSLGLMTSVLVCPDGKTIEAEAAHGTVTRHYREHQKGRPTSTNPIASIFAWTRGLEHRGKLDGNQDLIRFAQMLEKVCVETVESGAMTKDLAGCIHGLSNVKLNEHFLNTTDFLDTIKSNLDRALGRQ
Procedure: IDH1-R132H, IDH1-R132C, IDH2-R172K and IDH2-R140Q mutant enzymes catalyze the conversion of αKG to 2HG. 2HG is analyzed using in-line solid phase extraction and mass spectrometry. This analysis is carried out in a RapidFire® instrument coupled to a 6460 triple quadrupole mass spectrometer (G6460A Agilent).
IDH1 mutant (R132H and R132C) and IDH2 mutant (R140Q and R172K) proteins containing N-terminal His-tag are expressed in E. coli and purified using nickel affinity chromatography. The enzyme assays are carried out in V-bottom 96 well polypropylene plates containing 100 mM Tris-HCl buffer, 1 mM DTT, 0.005% TRITON™ X-100, 120 mM NaCl. For IDH1 R132H, α-ketoglutarate, NADPH and MnCl2 are included at final concentrations of 300 μM, 2.5 μM and 300 μM respectively. For IDH1 R132C, α-ketoglutarate, NADPH and MnCl2 are included at final concentrations of 100 μM, 10 μM and 100 μM respectively. For IDH2 R172K, α-ketoglutarate, NADPH and MnCl2 are included at final concentrations of 150 μM, 10 μM and 150 μM respectively. For IDH2 R140Q, α-ketoglutarate, NADPH and MnCl2 are included at final concentrations of 3000 μM, 10 μM and 100 μM respectively. Final pH=7.0. Test compound dissolved in DMSO stock is diluted in the reaction mix at a final DMSO concentration of 4%. Compounds are tested in dose-response format. The assay is started by addition of enzyme. Enzymes are used at the following final concentrations: IDH1 R132H, 2 nM; IDH1 R132C, 0.5 nM; IDH2 R172K, 1.2 nM; IDH2 R140Q, 1.2 nM. After 90 minutes the reaction is quenched by adding ACN (50:50) containing 3-hydroxy-1,5-pentanedioic-2,2,3,4,4-d5 acid (5d5-3HG) as an internal standard for mass spectrometry analysis and quantitation of reaction product. 2-Hydroxyglutarate (2HG) in quenched samples is separated using strong anionic exchange column chromatography (Phenomenex Strata-X-A SecurityGuard) and analyzed by mass spectrometry in a 6460 triple quadrupole mass spectrometer (G6460A Agilent). The 2HG signal detected is transformed into an analyte concentration using a calibration curve generated using known 2HG concentrations. […] IC50 values are obtained from the individual % inhibition values at different compound concentrations using a 4-parameter equation. These calculations are carried out using Activity Base (IDBS) or Screener (Genedata) data analysis programs.

Compound | IC50 ([1]; Homo sapiens, U-87 MG, 19 h) [nM] | IC50 (IDH2/R140Q) [µM] | IC50 [1] [nM] | IC50 ([1]; Homo sapiens, U-87 MG) [nM]
C=CC(=O)N1CCN(Cc2ccc([C@H](C)Nc3ncc4c(n3)N(C(C)C)C(=O)OC4)cc2)CC1 [Example 1, 1-Isopropyl-7-[[(1S)-1-[4-[(4-prop-2-enoylpiperazin-1-yl)methyl]phenyl]ethyl]amino]-4H-pyrimido[4,5-d][1,3]oxazin-2-one] | 2.65 ± 0.07 | 41.8 | – | –
C=CC(=O)N1CCN(Cc2ccc([C@H](C)Nc3ncc4c(n3)N(CC)C(=O)OC4)cc2)CC1 [Example 2, 1-Ethyl-7-[[(1S)-1-[4-[(4-prop-2-enoylpiperazin-1-yl)methyl]phenyl]ethyl]amino]-4H-pyrimido[4,5-d][1,3]oxazin-2-one] | – | 73.9 | 5.08 ± 1.65 | –
C=CC(=O)N1CCN(Cc2ccc([C@H](C)Nc3ncc4c(n3)N(CC(C)C)C(=O)OC4)cc2)CC1 [Example 3, 1-Isobutyl-7-[[(1S)-1-[4-[(4-prop-2-enoylpiperazin-1-yl)methyl]phenyl]ethyl]amino]-4H-pyrimido[4,5-d][1,3]oxazin-2-one] | 5.9 | 59.5 | – | –
C=CC(=O)N1CC(OCc2ccc([C@H](C)Nc3ncc4c(n3)N(CC)C(=O)OC4)cc2)C1 [Example 4, 1-Ethyl-7-[[(1S)-1-[4-[(1-prop-2-enoylazetidin-3-yl)oxymethyl]phenyl]ethyl]amino]-4H-pyrimido[4,5-d][1,3]oxazin-2-one] | 2.98 ± 2.58 | 37.7 | – | –
C=CC(=O)N1CC2(CN(Cc3ccc([C@H](C)Nc4ncc5c(n4)N(CC(C)C)C(=O)OC5)cc3)C2)C1 [Example 5, 1-Isobutyl-7-[[(1S)-1-[4-[(2-prop-2-enoyl-2,6-diazaspiro[3.3]heptan-6-yl)methyl]phenyl]ethyl]amino]-4H-pyrimido[4,5-d][1,3]oxazin-2-one] | 9.84 ± 8.1 | > 100 | – | –
C=CC(=O)N1CCN(c2ccc([C@H](C)Nc3ncc4c(n3)N(C(C)C)C(=O)OC4)cc2)CC1 [Example 6, 1-Isopropyl-7-[[(1S)-1-[4-(4-prop-2-enoylpiperazin-1-yl)phenyl]ethyl]amino]-4H-pyrimido[4,5-d][1,3]oxazin-2-one] | 17.4 ± 1.3 | > 100 | – | –
C=CC(=O)N1CC(CCc2ccc([C@H](C)Nc3ncc4c(n3)N(CC)C(=O)OC4)cc2)C1 [Example 7, 1-Ethyl-7-[[(1S)-1-[4-[2-(1-prop-2-enoylazetidin-3-yl)ethyl]phenyl]ethyl]amino]-4H-pyrimido[4,5-d][1,3]oxazin-2-one] | 5.64 ± 0.35 | 10.9 | – | –
C=CC(=O)N1CCC2(CC1)CN(Cc1ccc([C@H](C)Nc3ncc4c(n3)N(C(C)C)C(=O)OC4)cc1)C2 [Example 8, 1-Isopropyl-7-[[(1S)-1-[4-[(7-prop-2-enoyl-2,7-diazaspiro[3.5]nonan-2-yl)methyl]phenyl]ethyl]amino]-4H-pyrimido[4,5-d][1,3]oxazin-2-one] | 18.9 ± 5.1 | > 100 | – | –
C=CC(=O)N1CC(COc2ccc([C@H](C)Nc3ncc4c(n3)N(C(C)C)C(=O)OC4)cc2)C1 [Example 9, 1-Isopropyl-7-[[(1S)-1-[4-[(1-prop-2-enoylazetidin-3-yl)methoxy]-phenyl]ethyl]amino]-4H-pyrimido[4,5-d][1,3]oxazin-2-one] | 3.68 ± 0.57 | 27 | – | –
C=CC(=O)N1CC(N(C)Cc2ccc([C@H](C)Nc3ncc4c(n3)N(CC)C(=O)OC4)cc2)C1 [Example 10, 1-Ethyl-7-[[(1S)-1-[4-[[methyl-(1-prop-2-enoylazetidin-3-yl)amino]methyl]-phenyl]ethyl]amino]-4H-pyrimido[4,5-d][1,3]oxazin-2-one] | 7.14 ± 1.27 | > 100 | – | –
C=CC(=O)N1CCN(Cc2ccc([C@H](C)Nc3ncc4c(n3)N([C@H](C)CO)C(=O)OC4)cc2)CC1 [Example 11, 1-[(1R)-2-Hydroxy-1-methyl-ethyl]-7-[[(1S)-1-[4-[(4-prop-2-enoylpiperazin-1-yl)methyl]phenyl]ethyl]amino]-4H-pyrimido[4,5-d][1,3]oxazin-2-one] | 7.35 ± 0.07 | > 100 | – | –
C=CC(=O)N1CCC(N(C)Cc2ccc([C@H](C)Nc3ncc4c(n3)N(CC)C(=O)OC4)cc2)CC1 [Example 12, 1-Ethyl-7-[[(1S)-1-[4-[[methyl-(1-prop-2-enoyl-4-piperidyl)amino]-methyl]phenyl]ethyl]amino]-4H-pyrimido[4,5-d][1,3]oxazin-2-one] | – | > 100 | – | 13.5 ± 1.1
C=CC(=O)N1CC(OCc2ccc([C@H](C)Nc3ncc4c(n3)N(CC(C)C)C(=O)OC4)cc2)C1 [Example 13, 1-Isobutyl-7-[[(1S)-1-[4-[(1-prop-2-enoylazetidin-3-yl)oxymethyl]phenyl]ethyl]amino]-4H-pyrimido[4,5-d][1,3]oxazin-2-one] | 7.5 ± 0.283 | 93.6 | – | –
C=CC(=O)N1CC2(CN(Cc3ccc([C@H](C)Nc4ncc5c(n4)N(CC)C(=O)OC5)cc3)C2)C1 [Example 14, 1-Ethyl-7-[[(1S)-1-[4-[(2-prop-2-enoyl-2,6-diazaspiro[3.3]heptan-6-yl)methyl]phenyl]ethyl]amino]-4H-pyrimido[4,5-d][1,3]oxazin-2-one] | 9.75 ± 2.41 | > 100 | – | –
C=CC(=O)N1CC2(CN(Cc3ccc([C@H](C)Nc4ncc5c(n4)N(C(C)C)C(=O)OC5)cc3)C2)C1 [Example 15, 1-Isopropyl-7-[[(1S)-1-[4-[(2-prop-2-enoyl-2,6-diazaspiro[3.3]heptan-6-yl)methyl]phenyl]ethyl]amino]-4H-pyrimido[4,5-d][1,3]oxazin-2-one] | 3.9 | > 100 | – | –
C=CC(=O)N1CCN(Cc2ccc([C@H](C)Nc3ncc4c(n3)N(CC)C(=O)OC4)cc2F)CC1 [Example 16, 1-Ethyl-7-[[(1S)-1-[3-fluoro-4-[(4-prop-2-enoylpiperazin-1-yl)methyl]phenyl]ethyl]amino]-4H-pyrimido[4,5-d][1,3]oxazin-2-one] | 5.79 ± 0.57 | 49 | – | –
C=CC(=O)N1CC=C(COc2ccc([C@H](C)Nc3ncc4c(n3)N(CC)C(=O)OC4)cc2)C1 [Example 22, 1-ethyl-7-[[(1S)-1-[4-[(1-prop-2-enoyl-2,5-dihydropyrrol-3-yl)methoxy]phenyl]ethyl]amino]-4H-pyrimido[4,5-d][1,3]oxazin-2-one] | – | 11.6 ± 2 | – | –
